Read-outs that look alike come from different tables or passages of the source.
Key:
[1] = molecular target: T1, human type 1 glycine transporter (GlyT1) (Homo sapiens, UniProt P48067); assay: Glycine uptake inhibition experiment ([3H] glycine uptake in T98G cells); format: cell-based; settings: [3H] glycine 250 nM, read-out: IC50 (glycine uptake inhibiting activity)
T1 construct: Used in the experiment were T98G cells (glioma cells) developing a human type 1 glycine transporter (GlyT1); endogenous in cells; host or cells: T98G human glioma cells
T1 sequence (P48067 1-706): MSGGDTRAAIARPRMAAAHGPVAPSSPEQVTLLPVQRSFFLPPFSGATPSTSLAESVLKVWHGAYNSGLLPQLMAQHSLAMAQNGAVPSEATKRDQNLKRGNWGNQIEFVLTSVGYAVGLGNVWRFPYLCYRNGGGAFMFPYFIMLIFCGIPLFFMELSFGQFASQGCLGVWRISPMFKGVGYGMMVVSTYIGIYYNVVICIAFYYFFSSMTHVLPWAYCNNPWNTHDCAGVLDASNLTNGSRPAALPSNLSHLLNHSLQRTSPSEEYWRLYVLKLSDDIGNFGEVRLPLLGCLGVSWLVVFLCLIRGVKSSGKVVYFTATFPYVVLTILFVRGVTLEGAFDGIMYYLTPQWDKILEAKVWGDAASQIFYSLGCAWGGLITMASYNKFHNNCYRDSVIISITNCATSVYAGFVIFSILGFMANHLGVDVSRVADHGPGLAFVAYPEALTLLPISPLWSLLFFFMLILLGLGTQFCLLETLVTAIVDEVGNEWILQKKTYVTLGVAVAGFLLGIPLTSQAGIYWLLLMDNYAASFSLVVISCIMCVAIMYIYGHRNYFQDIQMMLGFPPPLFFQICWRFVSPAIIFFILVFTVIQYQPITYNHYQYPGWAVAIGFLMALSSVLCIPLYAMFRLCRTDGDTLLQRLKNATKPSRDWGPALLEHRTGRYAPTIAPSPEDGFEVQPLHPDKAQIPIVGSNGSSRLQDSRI
Experimental: A glycine uptake inhibition experiment was conducted in accordance with the method described in Neuron, 8, 927-935, 1992. Used in the experiment were T98G cells (glioma cells) developing a human type 1 glycine transporter (GlyT1). The T98G cells were seeded in a 96-well plate at a density of 2.0×10^4 cells per well and cultured overnight in a CO2 incubator. The test substance was first dissolved in a 100% DMSO solution and then dissolved in a 10 mM HEPES buffer solution (pH 7.4) supplemented with 150 mM sodium chloride, 1 mM calcium chloride, 5 mM potassium chloride, 1 mM magnesium chloride, 10 mM glucose, and 0.2% bovine serum albumin. After removing the cell culture medium, the test substance was subjected to a 10-min pretreatment. Thereafter, the test substance and [^3H] glycine (final concentration: 250 nM) were added to the cells and reaction was performed at room temperature for 15 minutes. After the end of the reaction, the extracellular fluid was aspirated with a manifold to remove the excess marker glycine present outside of the cells; thereafter, the cells were lysed with an aqueous solution of 0.5 M sodium hydroxide. The glycine content in the cells was determined by measuring the radioactivity in the cell lysate with a liquid scintillation counter. With the amount of glycine uptake in the presence of 10 μM ALX5407 being referred to as the nonspecific uptake, the amount of specific uptake was calculated by subtracting the amount of nonspecific uptake from the total amount of uptake in the absence of 10 μM ALX5407. In addition, glycine uptake inhibiting activity (IC50) was calculated from an inhibition curve for the concentration of the test substance ranging from 10^−9 to 10^−5 M.

[2] = Membrane permeability experiment (PAMPA Evolution); format: in vitro ADME; settings: artificial lipid GIT-0, pH 4.0, 5.0, 6.2 and 7.4, marker metoprolol
Experimental: In the development of pharmaceuticals, membrane permeability is an important factor to consider from the viewpoint of relationship with the bodily absorption of a medicament to be administered orally. Compounds having high membrane permeability are expected to feature satisfactory absorption by the intestinal tract (see Pharmaceutical Research (2002) Vol. 19, No. 7, 921-925.)
A membrane permeability test was conducted using PAMPA Evolution™ (pION INC.) in accordance with a modified version of the recommended protocol of pION INC. To be more specific, solutions of an assay compound (i.e., a DMSO solution of the compound as diluted by being added to system solutions that had been adjusted to prescribed pHs (4.0, 5.0, 6.2, and 7.4)) were prepared and added to the lower compartment (donor) of a sandwich plate having a lipid bilayer membrane formed of an artificial lipid (GIT-0). An acceptor sink buffer was added to the upper compartment (acceptor) and after the lapse of a prescribed period, the cumulative permeation of the compound was measured by performing UV spectroscopy on the solutions in the donor and acceptor, and the membrane permeability coefficient Pe (×10^−6 cm/sec) was calculated to assay the membrane permeability of the compound.

| Structure (SMILES) | IC50 [1] | membrane permeability coefficient Pe compared with metoprolol [2] | IC50 ([1]; 15 min, room temperature) |
| --- | --- | --- | --- |
| COCCn1cnc(C(=O)N(Cc2cccc(OC(F)(F)F)c2)C2CCOCC2)c1 [Compound 20] | ≥ 1 µM | – | – |
| O=C(c1c[nH]cn1)N(Cc1cccc(Cl)c1)C1CCOCC1 [Compound 26] | ≥ 1 µM | higher Pe values than the high permeability marker compound metoprolol | – |
| Cn1cnc(C(=O)N(CCOc2ccc(Cl)c(Cl)c2)C2CCOCC2)c1 [Compound 39] | < 0.1 µM | – | – |
| Cn1cnc(C(=O)N(Cc2ccc(F)c(-c3cccc(Oc4ccccc4)c3)c2)C2CCOCC2)n1 [Compound 96] | < 0.1 µM | higher Pe values than the high permeability marker compound metoprolol | – |
| Cn1cnc(C(=O)N(Cc2ccc(F)c(-c3cccc(CO)c3)c2)C2CCOCC2)c1 [Compound 94] | < 0.1 µM | – | 0.0076 µM |
| Cn1cnc(C(=O)N(Cc2cc(OC(F)(F)F)ccc2F)C2CCOCC2)n1 [Compound 63] | ≥ 1 µM | – | – |
| Cn1cnc(C(=O)N(Cc2ccc(F)c(-c3cccc(Cl)c3)c2)C2CCOCC2)n1 [Compound 61] | < 0.1 µM | higher Pe values than the high permeability marker compound metoprolol | 0.0159 µM |
| Cn1cnc(C(=O)N(Cc2ccc(-c3ccccc3)cc2)C2CCOCC2)c1 [Compound 44] | ≥ 1 µM | – | – |
| Cn1cnc(C(=O)N(CCC2CCOCC2)Cc2cccc(OC(F)(F)F)c2)c1 [Compound 1] | < 0.1 µM | – | 0.0195 µM |
| CCn1cnc(C(=O)N(Cc2ccc(F)c(C(F)(F)F)c2)C2CCOCC2)n1 [Compound 45] | < 0.1 µM | – | 0.0326 µM |
| O=C(c1nc[nH]n1)N(Cc1ccc(F)c(C(F)(F)F)c1)C1CCOCC1 [Compound 30] | ≥ 1 µM | – | – |
| Cn1cnc(C(=O)N(Cc2ccc(Cl)c(OC(F)(F)F)c2)C2CCOCC2)n1 [Compound 69] | < 0.1 µM | – | 0.0298 µM |
| Cn1cnc(C(=O)N(Cc2ccc(F)c(-c3ccc(F)cc3)c2)C2CCSCC2)c1 [Compound 114] | < 0.1 µM | – | 0.0164 µM |
| Cn1cnc(C(=O)N(CCc2ccccc2Cl)C2CCOCC2)n1 [Compound 47] | ≥ 1 µM | – | – |
| CCCOc1cccc(-c2cc(CN(C(=O)c3ncn(C)n3)C3CCOCC3)ccc2F)c1 [Compound 93] | < 0.1 µM | – | 0.0418 µM |
| Cn1cnc(C(=O)N(Cc2ccc(F)c(-c3ccc(OC(F)(F)F)cc3)c2)C2CCSCC2)c1 [Compound 112] | < 0.1 µM | – | 0.0203 µM |
| Cc1nc(C(=O)N(Cc2cccc(OC(F)(F)F)c2)C2CCOCC2)c[nH]1 [Compound 8] | ≥ 1 µM | – | – |
| Cc1ccc(-c2cc(CN(C(=O)c3cn(C)cn3)C3CCOCC3)ccc2F)cc1 [Compound 105] | < 0.1 µM | – | 0.0162 µM |
| Cn1cnc(C(=O)N(Cc2ccc(F)c(Br)c2)C2CCOC(C)(C)C2)c1 (stereo not drawn) [Compound 110] | – | higher Pe values than the high permeability marker compound metoprolol | – |
| COC(=O)C(Cc1cccc(OC(F)(F)F)c1)N(C(=O)c1cn(C)cn1)C1CCOCC1 (stereo not drawn) [Compound 107] | < 0.1 µM | – | 0.03 µM |
| Cn1cnc(C(=O)N(Cc2cc(F)cc(C(F)(F)F)c2)C2CCOCC2)c1 [Compound 42] | < 0.1 µM | – | 0.0269 µM |
| Cn1cnc(C(=O)N(Cc2cc(Cl)cc(OC(F)(F)F)c2)C2CCOCC2)n1 [Compound 73] | < 0.1 µM | – | 0.0189 µM |
| O=C(c1nc[nH]n1)N(Cc1ccc(F)c(Cl)c1)C1CCOCC1 [Compound 29] | ≥ 1 µM | – | – |
| Cn1cnc(C(=O)N(Cc2ccc(OC(F)(F)F)cc2)C2CCOCC2)n1 [Compound 52] | ≥ 1 µM | – | – |
| CCn1cnc(C(=O)N(Cc2cccc(OC(F)(F)F)c2)C2CCOCC2)n1 [Compound 31] | < 0.1 µM | – | 0.0106 µM |

| Structure (SMILES) | IC50 [1] | membrane permeability coefficient Pe compared with metoprolol [2] | IC50 ([1]; 15 min, room temperature) |
| --- | --- | --- | --- |
| Cn1cnc(C(=O)N(Cc2ccc(F)c(-c3ccc(C(F)(F)F)cc3)c2)C2CCOCC2)c1 [Compound 104] | < 0.1 µM | – | 0.0272 µM |
| Cn1cnc(C(=O)N(Cc2ccc(F)c(-c3ccccc3F)c2)C2CCOCC2)n1 [Compound 88] | < 0.1 µM | – | 0.0451 µM |
| O=C(c1cn(CC(F)(F)F)cn1)N(Cc1cccc(OC(F)(F)F)c1)C1CCOCC1 [Compound 14] | ≥ 1 µM | – | – |
| Cn1cnc(C(=O)N(Cc2cccc(OC(F)F)c2)C2CCOCC2)n1 [Compound 67] | < 0.1 µM | – | 0.0422 µM |
| Cn1cnc(C(=O)N(CCOc2ccc(Cl)cc2)C2CCOCC2)c1 [Compound 36] | < 0.1 µM | – | – |
| Cc1cc(CN(C(=O)c2cn(C)cn2)C2CCSCC2)cc(OC(F)(F)F)c1 [Compound 118] | < 0.1 µM | – | 0.0113 µM |
| Cn1cnc(C(=O)N(Cc2ccc(OC(F)F)c(OC(F)F)c2)C2CCOCC2)n1 [Compound 68] | ≥ 1 µM | – | – |
| CC1CC(N(Cc2ccc(F)c(Br)c2)C(=O)c2cn(C)cn2)CC(C)O1 (stereo not drawn) [Compound 111] | ≥ 1 µM | – | – |
| Cn1cnc(C(=O)N(C2CCOCC2)C(c2ccccc2)c2ccccc2)c1 [Compound 108] | ≥ 1 µM | – | – |
| O=C(c1ncn(C(F)F)n1)N(Cc1cccc(OC(F)(F)F)c1)C1CCOCC1 [Compound 75] | ≥ 1 µM | – | – |
| COC(=O)c1cccc(-c2cc(CN(C(=O)c3ncn(C)n3)C3CCOCC3)ccc2F)c1 [Compound 77] | < 0.1 µM | – | 0.0105 µM |
| Cn1cnc(C(=O)N(Cc2cccc(C(F)(F)F)c2)C2CCSCC2)c1 [Compound 113] | < 0.1 µM | – | 0.0071 µM |
| Cn1cnc(C(=O)N(Cc2cccc(I)c2)C2CCOCC2)n1 [Compound 53] | < 0.1 µM | – | 0.0382 µM |
| Cn1cnc(C(=O)N(Cc2ccc(F)c(Br)c2)C2CCOCC2)n1 [Compound 57] | < 0.1 µM | – | 0.0459 µM |
| O=C(c1nc[nH]n1)N(Cc1cccc(Cl)c1)C1CCOCC1 [Compound 28] | ≥ 1 µM | – | – |
| Cn1cnc(C(=O)N(Cc2cccc(C(F)(F)F)c2)C2CCS(=O)(=O)CC2)c1 [Compound 117] | ≥ 1 µM | – | – |
| Cn1cnc(C(=O)N(Cc2ccc(F)c(-c3cccc(CO)c3)c2)C2CCOCC2)n1 [Compound 78] | < 0.1 µM | – | – |
| Cc1nc(C(=O)N(Cc2cccc(OC(F)(F)F)c2)C2CCOCC2)cn1C [Compound 9] | ≥ 1 µM | – | – |
| O=C(c1nc[nH]n1)N(Cc1cccc(OC(F)(F)F)c1)C1CCOCC1 [Compound 19] | ≥ 1 µM | – | – |
| Cn1cnc(C(=O)N(Cc2ccc(F)c(C(F)(F)F)c2)C2CCOCC2)c1 [Compound 25] | < 0.1 µM | – | 0.0041 µM |
| COc1cccc(CN(C(=O)c2cn(C)cn2)C2CCOCC2)c1 [Compound 23] | < 0.1 µM | – | – |
| Cn1cc(C(=O)N(Cc2cccc(OC(F)(F)F)c2)C2CCOCC2)nc1Br [Compound 6] | ≥ 1 µM | – | – |
| Cn1cnc(C(=O)N(Cc2ccc(F)c(-c3cccc(CCC#N)c3)c2)C2CCOCC2)c1 [Compound 101] | < 0.1 µM | – | 0.0411 µM |
| Cn1cnc(C(=O)N(Cc2ccc(F)c(Br)c2)C2CCOCC2)c1 [Compound 102] | < 0.1 µM | – | 0.0038 µM |
| CCn1cnc(C(=O)N(Cc2cccc(OC(F)(F)F)c2)C2CCOCC2)c1 [Compound 13] | < 0.1 µM | – | 0.0031 µM |
